In article PMC12030568, “Binding Affinity of Synthetic Cannabinoids to Human Serum Albumin: Site Characterization and Interaction Insights” (Pharmaceuticals, 2025):
Entries after “also recorded” stand apart in the source; their conditions may differ.

Legend:
[1] = tested on: HSA; conditions: cited from earlier work
[2] = target: human serum albumin (HSA) (Homo sapiens, UniProt P02768); assay: HPAC zonal elution on CHIRALPAK HSA column, bound fraction determination; conditions: for experimental %b to HSA (controls): ACN in mobile phase ranging from 2% to 20%; for Bound Fraction (%b) / Retention factor (k): values at 100% aqueous buffer, extrapolated from log k vs % ACN (11-16%), 67 mM potassium phosphate buffer pH 7.0, 25 °C
Experimental: Binding affinity studies were conducted using a series of commercially available synthetic cannabinoids (Figure 1). […] The binding affinity of the synthetic cannabinoids to HSA was measured based on previously established methods using HPAC [15, 35, 36]. […] The analyses were performed using zonal elution in reversed-phase mode. A potassium phosphate buffer solution (67 mM, pH 7.0) was selected as the mobile phase due to HSA’s stability in phosphate buffers, and to closely mimic physiological conditions. Several studies describe the use of this buffer in protein binding studies mimicking the physiological conditions of human plasma.
ACN was chosen for the HSA studies, as it is one of the most commonly used organic modifiers in HSA columns. However, a low percentage of the organic modifier was necessary to prevent protein denaturation and prolong the column’s lifespan. Additionally, the presence of an organic modifier must be carefully considered, as it can alter the number of available binding sites by affecting the spatial conformation of the protein [41].
To calculate the bound fraction (%b) to HSA, different proportions of organic modifier were added to the mobile phase, ranging from 11% to 15%. In the Supplementary Materials (Figures S1–S6), representative chromatograms for each synthetic cannabinoid are shown, as examples. […] All analyses were performed in triplicate. […] To determine the %b values in a 100% aqueous buffer, an extrapolation was performed by plotting the logarithm of the retention factor (log k) against the percentage of the organic modifier (Figure S7, Supplementary Materials).
To determine the experimental %b values for these controls, different proportions of ACN were added to the mobile phase, ranging from 2% to 20%.
The sample injections (10 µL) were carried out in triplicate, and the flow rate was set to 0.5 mL/min.
(§1) The analyses were performed in reversed-phase mode using as mobile phases mixtures of 67 mM potassium phosphate buffer solution (pH 7.0) with different proportions of ACN. […] All chromatographic analyses were performed at 25 ± 2 °C, under isocratic mode, with UV detection at 220, 254, and 300 nm. All mobile phases were prepared in a volume/volume ratio (v/v), filtered through polyamide membrane filters of 0.2 µm pore size from Whatman® GmbH (Dassel, Germany), and degassed in an ultrasonic bath (Soltec® Sonica® Ultrasonic cleaner) for at least 15 min before use.
Zonal analysis was the approach selected for the development of this work. The retention of the analyte is directly related to its interaction with the immobilized HSA, and can be described with Equation (1).(1) k=(KA1n1+…+KAnnn)mL/VM
The retention factor (k) is related to the number of binding sites and to their corresponding equilibrium constants (KA). VM represents the void volume and mL the total moles of the analyte binding sites. Equation (2) was used to calculate the retention factor [58].(2) k=tr−t0/t0
tr corresponds to the retention time of the analyte and t0 to the dead time. The t0 was taken from each individual run and was considered to be equal to the solvent front.
One application of zonal elution in HPAC is to measure the binding affinity of a drug to an immobilized protein.

[3] = tested on: HSA; conditions: cited from earlier work; remark: listed apart in the source
[4] = design: method as in PMID 26810883; conditions: ultrafiltration and LC-MS; cited from earlier work
[5] = target: T1, HSA site I (Homo sapiens, UniProt P02768); assay: Zonal displacement chromatography on HSA column with warfarin (site I probe); assay type: binding; conditions: competitor warfarin 5-20 µM in mobile phase; 13% ACN; plot of 1/k vs competitor concentration
T1 construct: catalogue number not given
Experimental: (§2) To gain deeper insights into HSA binding, displacement studies were conducted to further investigate the binding sites of the synthetic cannabinoids on this protein. […] These competitors are commonly used in displacement studies to elucidate binding interactions at specific HSA sites.
(§3) Various concentrations of the competitors were added to the mobile phase, based on previous studies.
(§4) The chromatographic data are plotted as 1/k versus the competitor concentration.
as §1
(§5) Stock solutions of all synthetic cannabinoids were prepared in EtOH at the concentration of 0.2 mg/mL and further diluted with the mobile phase, the potassium phosphate buffer (67 mM, pH 7.0), to a final concentration of 50 μg/mL. All working solutions were filtered through a membrane of 0.45 µm pore size and vortexed for at least 30 s before injection. […] All solutions were stored at 4 °C. […] These concentrations were selected based on previous displacement studies. An aqueous buffer of a 67 mM solution of potassium phosphate was prepared by adjusting the pH to 7.0 with a solution of saturated NaOH. The aqueous buffer pH was controlled with a Crison® BasiC 20 pH meter.
(§6) Equation (5) can be used to describe the impact of the competitor (I) on the retention time of each analyte (A) [32, 58](5) 1/k=VMKI[I]/KAmL+VM/KAmL where KI is the association equilibrium constant of I at the binding site of competition with A, [I] is the concentration of the competitor in the mobile phase, and KA is the association equilibrium constant of A at the binding site of competition with I.
(§7) If a direct competition between the analyte and the competing agent occurs, a straight line with a positive slope is observed in the plot of 1/k versus [I]; if allosteric competition between the analyte and the competing agent occurs, a straight line with a negative slope is observed in the plot of 1/k versus [I]; and if random variations are observed, no competition between the analyte and the competing agent occurs.

[6] = target: T2, HSA site II (Homo sapiens, UniProt P02768); assay: Zonal displacement chromatography on HSA column with (S)-ibuprofen and L-tryptophan (site II probes); assay type: binding; conditions: 13% ACN; for Interaction with (S)-ibuprofen on HSA: competitor (S)-ibuprofen 5-20 µM in mobile phase, negative slope of 1/k vs concentration; for Binding profile at HSA Site II: competitor L-tryptophan 5-20 µM in mobile phase, plot of 1/k vs competitor concentration
T2 construct: catalogue number not given
Experimental: as §2, §3, §4, §1, §5, §6, §7

human serum albumin (HSA), sequence (P02768 25-609): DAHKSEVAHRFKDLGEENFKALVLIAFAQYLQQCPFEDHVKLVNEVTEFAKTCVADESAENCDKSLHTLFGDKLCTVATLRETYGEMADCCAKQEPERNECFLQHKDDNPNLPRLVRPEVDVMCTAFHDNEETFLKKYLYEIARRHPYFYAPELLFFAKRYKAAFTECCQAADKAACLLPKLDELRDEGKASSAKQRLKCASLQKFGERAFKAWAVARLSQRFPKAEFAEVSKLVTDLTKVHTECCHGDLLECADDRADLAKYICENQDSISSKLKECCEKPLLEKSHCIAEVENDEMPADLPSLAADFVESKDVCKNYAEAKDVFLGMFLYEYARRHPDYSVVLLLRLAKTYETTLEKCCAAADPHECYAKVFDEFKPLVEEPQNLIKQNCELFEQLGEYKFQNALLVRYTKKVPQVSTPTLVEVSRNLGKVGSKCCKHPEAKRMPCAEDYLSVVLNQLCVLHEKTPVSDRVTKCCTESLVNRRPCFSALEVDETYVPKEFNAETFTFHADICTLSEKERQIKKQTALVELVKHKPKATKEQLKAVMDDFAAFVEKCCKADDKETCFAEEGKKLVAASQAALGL
T2 sequence (P02768 25-609): as above
T1 sequence (P02768 25-609): as above

| SMILES | Binding profile at HSA Site I [5] | Bound Fraction (%b) [2] [%] | Retention factor (k) [2] | Interaction with (S)-ibuprofen on HSA [6] | Binding profile at HSA Site II [6] | other results |
| --- | --- | --- | --- | --- | --- | --- |
| N[C@@H](Cc1c[nH]c2ccccc12)C(=O)O [L-Tryptophan, L-tryptophan] |  |  |  |  |  | Affinity constant of competitor for HSA (Lit.) [1]: KI L-Tryptophan (M^−1) (Lit. 4.4 × 10^4 M^−1) [55] |
| CN(C)CCCN1c2ccccc2Sc2ccc(Cl)cc21 [chlorpromazine, reference compound] |  |  |  |  |  | experimental %b to HSA (controls) [2]: 82.12%; reported %b to HSA [3]: > 90% |
| Cc1c(C(=O)c2cccc3ccccc23)c2cccc3c2n1[C@H](CN1CCOCC1)CO3 [WIN 55,212-2] |  |  |  |  |  | plasma protein binding [4]: 95% |
| COc1ccc2c(c1)c(CC(=O)O)c(C)n2C(=O)c1ccc(Cl)cc1 [indomethacin] |  |  |  |  |  | reported %b to HSA [3]: 97.8% |
| Cc1ncc([N+](=O)[O-])n1CCO [metronidazole, reference compound] |  |  |  |  |  | experimental %b to HSA (controls) [2]: 19.78%; reported %b to HSA [3]: 20% |
| COC(=O)[C@@H](NC(=O)c1nn(Cc2ccc(F)cc2)c2ccccc12)C(C)C [AMB-FUBINACA] | compete with warfarin for site I; also recorded: Binding occurs (competition with warfarin) | 99.7 | 326.38 | interact allosterically with (S)-ibuprofen; also recorded: Allosterically interacts with (S)-ibuprofen | do not compete with L-tryptophan; also recorded: Binding does not occur (no competition with L-tryptophan) |  |
| O=C(c1cccc2ccccc12)c1nc2ccccc2n1CCCCCF [FUBIMINA] |  | 99.9 | 968.23 |  |  |  |
| CC(C)[C@H](NC(=O)c1nn(CC2CCCCC2)c2ccccc12)C(N)=O | bind to both site I and site II of HSA; also recorded: Binding occurs (competition with warfarin) | 99.7 | 294.40 | exhibits allosteric interactions with (S)-ibuprofen; also recorded: Allosterically interacts with (S)-ibuprofen | bind to both site I and site II of HSA; also recorded: Binding occurs (competition with L-tryptophan) |  |
| COC(=O)[C@@H](NC(=O)c1nn(CCCCCF)c2ccccc12)C(C)C [5F-AMB] | compete with warfarin for site I; also recorded: Binding occurs (competition with warfarin) | 98.9 | 87.30 | interact allosterically with (S)-ibuprofen; also recorded: Allosterically interacts with (S)-ibuprofen | do not compete with L-tryptophan; also recorded: Binding does not occur (no competition with L-tryptophan) |  |
| CC(=O)CC(c1ccccc1)c1c(O)c2ccccc2oc1=O (centres unmarked) [Warfarin, warfarin] |  |  |  |  |  | Affinity constant of competitor for HSA (Lit.) [1]: KI Warfarin (M^−1) (Lit. 3.3 × 10^5 M^−1) [55] |
| CCCCCn1nc(C(=O)N[C@H](C(N)=O)C(C)C)c2ccccc21 [AB-PINACA] | compete with warfarin for site I; also recorded: Binding occurs (competition with warfarin) | 98.7 | 79.11 | interact allosterically with (S)-ibuprofen; also recorded: Allosterically interacts with (S)-ibuprofen | do not compete with L-tryptophan; also recorded: Binding does not occur (no competition with L-tryptophan) |  |
| CC(C)(C)[C@H](NC(=O)c1nn(Cc2ccc(F)cc2)c2ccccc12)C(N)=O [ADB-FUBINACA] | neither site I nor site II is its primary binding site in HSA; also recorded: Binding does not occur (no competition with warfarin) | 99.8 | 619.87 | Allosterically interacts with (S)-ibuprofen | neither site I nor site II is its primary binding site in HSA; also recorded: Binding does not occur (no competition with L-tryptophan) |  |
